How the values were obtained:
[1] = Antiamnesic activity in the mouse (step-down passive avoidance, amnesia induced by ECS); format: in vivo, mouse (CD1 male); details: mouse
[2] = system: excitor amino-acid receptors of cortical membranes ("forebrain") of rats; assay: Inhibition of the specific binding of [3H]-glutamate to rat forebrain membranes
Procedure, shortened: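 Forebrain membranes (cortex plus hippocampus, striatum removed) in Tris-HCl pH 7.1 incubated with ³H-L-glutamate and test compound for 20 min at 37 °C. Filtration on glass-fibre filters, scintillation counting; specific binding = total minus binding with 3.6 mM cold L-glutamate.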

[3] = Antidepressant activity in the behavioural despair test in the mouse; format: in vivo, mouse (male CD1)
[4] = Acute toxicity (LD50) in the mouse; details: in vivo
[5] = Memory-enhancement activity in the passive avoidance test in the rat; format: in vivo, rat (male Wistar); details: rat

With `CC1(C)CCC(NC(=O)[C@@H](N)CCC(=O)O)CC1` [Compound 23, 1-(4,4-dimethylcyclohexyl)-L-isoglutamine[4-amino-5-(4',4'-dimethylcyclohexylamine)-5-oxopentanoic acid (S)]] the “Antiamnesic activity (in words)” value ([1]; OS) was “particularly remarkable”, the change in vivo at 0.1 mg/kg ([1]; po, 0.1 mg/kg OS, retest 24 h after training, read-out: Reversal of the amnesia (% vs controls), as the increase in the Step Down Latency) was 20% and the change in vivo at 1 mg/kg ([1]; po, 1 mg/kg OS, retest 24 h after training, read-out: Reversal of the amnesia (% vs controls), as the increase in the Step Down Latency) was 40%. It also gave a change in vivo at 3 mg/kg ([1]; po, 3 mg/kg OS, retest 24 h after training, read-out: Reversal of the amnesia (% vs controls), as the increase in the Step Down Latency) of 37%, a change in vivo at 10 mg/kg ([1]; po, 10 mg/kg OS, retest 24 h after training, read-out: Reversal of the amnesia (% vs controls), as the increase in the Step Down Latency) of 61% and a change in vivo at 30 mg/kg ([1]; po, 30 mg/kg OS, retest 24 h after training, read-out: Reversal of the amnesia (% vs controls), as the increase in the Step Down Latency) of 67%. For the same molecule, the ED50 ([1]; po, OS, 60 min before training, read-out: ID50 (antiamnesic activity, dose inhibiting the amnesic effect of the ECS by 50%)) was 4.6 mg/kg, the “Activity in inhibiting the binding of glutamate (in words)” value ([2]; rat cortical membranes) was “considerable activity in inhibiting the binding of the glutamate” and the IC50 ([2]; rat forebrain membranes, 20 min, 37° C., pH 7.1) was 13.8 µM. The inhibition in vivo at 3 mg/kg ([3]; 5 min, 3 mg/kg IP, 5 minutes, read-out: Decrease in immobility (as %) vs the controls) was 14%, the inhibition in vivo at 10 mg/kg ([3]; 5 min, 10 mg/kg IP, 5 minutes, read-out: Decrease in immobility (as %) vs the controls) was 31% and the inhibition in vivo at 30 mg/kg ([3]; 5 min, 30 mg/kg IP, 5 minutes, read-out: Decrease in immobility (as %) vs the controls) was 94%. The “Antidepressant activity (in words)” value ([3]; IP) was “antidepressant effect of the same order of magnitude as the comparison drug used, amitriptyline”, the ED50 ([3]; IP, read-out: ED50 (dose antagonising immobility time by 50%)) was 11.1 mg/kg and the LD50 ([4]; IV) was 290 mg/kg. It also gave an LD50 ([4]; po, OS) of 1300 mg/kg, a change in vivo at 0.1 mg/kg ([5]; 96 h, 0.1 mg/kg IP, retest on the 4th day, 6 treatments, read-out: % variation vs controls (FS) in step through latency) of 11% and a change in vivo at 1 mg/kg ([5]; 96 h, 1 mg/kg IP, retest on the 4th day, 6 treatments, read-out: % variation vs controls (FS) in step through latency) of 19%. The change in vivo at 10 mg/kg ([5]; 96 h, 10 mg/kg IP, retest on the 4th day, 6 treatments, read-out: % variation vs controls (FS) in step through latency) was 43%, the ED30 ([5]; IP, read-out: ED30 (dose increasing the latency time (STL) by 30%)) was 2.3 mg/kg and the “Activity in increasing the avoidance time (in words)” value ([5]; IP, retest on the 4th day) was “considerable activity in increasing the avoidance time”.

— US5723494A, “Derivatives of glutamic and aspartic acids, a method of preparing them, and their use as drugs for enhancing memory and learning” (priority 1993, dated 1998)
